Data on eight compounds can be found in ChEMBL document CHEMBL3621158, “Synthesis of new betulinic acidpeptide conjugates and in vivo and in silico studies of the influence of peptide moieties on the triterpenoid core activity” (2015).

Holding throughout (format): functional
The subject of assay [1] is Mus musculus. As to the kind of experiment: Anti-inflammatory activity in mouse model of histamine-induced paw edema assessed as inhibition of inflammation at 50 mg/kg, ip dosed 1 hr before histamine injection.
The test system of assay [2] is Mus musculus. Description: Anti-inflammatory activity in mouse model of histamine-induced paw edema assessed as inhibition of inflammation at 50 mg/kg, ip dosed 1 hr before histamine injection relative to 50 mg/kg, ip indomethacin.
For assay [3], the system named is Mus musculus. Description: Anti-inflammatory activity in mouse model of histamine-induced paw edema assessed as inhibition of inflammation at 20 mg/kg, po dosed 1 hr before histamine injection.

For the compound `C=C(C)[C@@H]1CC[C@]2(C(=O)O)CC[C@]3(C)[C@H](CC[C@@H]4[C@@]5(C)CC[C@@](O)(c6cn(C[C@H](C)N(C(=O)[C@@H](NC(=O)OC(C)(C)C)[C@@H](C)CC)C(=O)C(C)(C)NCc7ccc(OC)cc7OC)nn6)C(C)(C)[C@@H]5CC[C@]43C)[C@@H]12`, the inhibition in vivo at 50 mg/kg in the assay on Mus musculus [1] was 31.2%; with Mus musculus [2], 74.3%.
On to `C=C(C)[C@@H]1CC[C@]2(C(=O)O)CC[C@]3(C)[C@H](CC[C@@H]4[C@@]5(C)CC[C@@](O)(c6cn(C[C@H](C)N(C(=O)[C@H](Cc7ccccc7)NC(=O)OC(C)(C)C)C(=O)C(C)(C)NCc7ccc(OC)cc7OC)nn6)C(C)(C)[C@@H]5CC[C@]43C)[C@@H]12`, for which the values for the inhibition in vivo at 50 mg/kg in the assay with Mus musculus [1] and in the assay with Mus musculus [2] were 2.5% and 6%, respectively.
As to `COc1ccc2c(c1)c(CC(=O)O)c(C)n2C(=O)c1ccc(Cl)cc1` [INDOMETHACIN], the results for the inhibition in vivo at 50 mg/kg in the assay on Mus musculus [1] and in the assay with Mus musculus [2] were 42% and 78%, respectively. The inhibition in vivo at 20 mg/kg in the assay on Mus musculus [3] amounted to 32.8%.
`C=C(C)[C@@H]1CC[C@]2(C(=O)O)CC[C@]3(C)[C@H](CC[C@@H]4[C@@]5(C)CC[C@](O)(c6cn(C[C@H](C)N(C(=O)[C@@H](NC(=O)OC(C)(C)C)[C@@H](C)CC)C(=O)C(C)(C)NCc7ccc(OC)cc7OC)nn6)C(C)(C)[C@@H]5CC[C@]43C)[C@@H]12`: the inhibition in vivo at 50 mg/kg is 14.5% in the assay on Mus musculus [1] and 34.5% in the assay on Mus musculus [2].
For `C=C(C)[C@@H]1CC[C@]2(C(=O)O)CC[C@]3(C)[C@H](CC[C@@H]4[C@@]5(C)CC[C@@](O)(c6cn(C[C@H](Cc7ccccc7)N(C(=O)[C@H](Cc7cc8ccccc8[nH]7)NC(=O)OC(C)(C)C)C(=O)C(C)(C)NCc7ccc(OC)cc7OC)nn6)C(C)(C)[C@@H]5CC[C@]43C)[C@@H]12` the same measures were 38.8% and 92%.
For `C#C[C@]1(O)CC[C@]2(C)[C@H]3CC[C@@H]4[C@H]5[C@H](C(=C)C)CC[C@]5(C(=O)O)CC[C@@]4(C)[C@]3(C)CC[C@H]2C1(C)C` the same measures were 25.2% and 60%.
The like results for `C=C(C)[C@@H]1CC[C@]2(C(=O)O)CC[C@]3(C)[C@H](CC[C@@H]4[C@@]5(C)CC[C@@](O)(c6cn(C[C@H](Cc7ccccc7)N(C(=O)[C@H](CO)NC(=O)OC(C)(C)C)C(=O)C(C)(C)NCc7ccc(OC)cc7OC)nn6)C(C)(C)[C@@H]5CC[C@]43C)[C@@H]12` were, in that order, 23% and 55%.
Take `C=C(C)[C@@H]1CC[C@]2(C(=O)O)CC[C@]3(C)[C@H](CC[C@@H]4[C@@]5(C)CC[C@@](O)(c6cn(CCNC(=O)C(C)(C)N(Cc7ccc(OC)cc7OC)C(=O)[C@H](Cc7c[nH]cn7)NC(=O)OC(C)(C)C)nn6)C(C)(C)[C@@H]5CC[C@]43C)[C@@H]12`: the figures for the inhibition in vivo at 50 mg/kg in the assay on Mus musculus [1] and with Mus musculus [2] were 33.4% and 79%, respectively.

As usually defined, the inhibition in vivo is how much of the control response was suppressed.
